Laboratory results taken from article PMC6199744, “Development of Chemical Proteomics for the Folateome and Analysis of the Kinetoplastid Folateome” (ACS Infectious Diseases, 2018).
Read-outs that look alike come from different tables or passages of the source.

Experiments:
[1] = biological target: DHFR-TS (Leishmania major, UniProt P07382); format: binding; conditions: for fold change: LMJF.06.0860 DIH[…]-T[…], vehicle control = 1
[2] = biological target: GLYCERALDEHYDE 3-PHOSPHATE DEHYDROGENASE, GLYCOSOM (TB427.06.4300) (Trypanosoma brucei brucei, UniProt P22512); test: Multitargeted bead mixture competition; format: binding, T. brucei; conditions: for fold change - vehicle control / fold change: protein TB427.06.4300 GLYCERALDEHYDE 3-PHOSPHATE DEHYDROGENASE, GLYCOSOMAL; for fold change: vehicle control = 1
[3] = tested on: dynein associated protein (Tb09.211.4920); test: Multitargeted bead mixture competition; format: binding, T. brucei; conditions: for fold change - vehicle control / fold change: protein TB09.211.4920 DYNEIN-ASSOCIATED PROTEIN, PUTATIVE; for fold change: vehicle control = 1
[4] = biological target: T1, HeLa cell extract proteins (Homo sapiens, UniProt P29692); format: binding
T1 construct: endogenous in cells; host or cells: HeLa cell extract
T1 sequence (P29692 1-281): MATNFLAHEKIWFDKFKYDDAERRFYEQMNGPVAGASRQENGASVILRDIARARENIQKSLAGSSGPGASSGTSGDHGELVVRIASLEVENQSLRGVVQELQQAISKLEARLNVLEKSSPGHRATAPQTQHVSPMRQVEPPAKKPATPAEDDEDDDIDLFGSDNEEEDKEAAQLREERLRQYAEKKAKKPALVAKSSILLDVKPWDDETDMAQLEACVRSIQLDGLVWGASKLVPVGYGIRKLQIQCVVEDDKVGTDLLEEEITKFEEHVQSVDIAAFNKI

[5] = tested on: DHCH; test: Multitargeted bead mixture competition; format: binding, L. major; conditions: CYTOPLASMIC, PUTATIVE; for fold change: vehicle control = 1
[6] = biological target: T2, DHFR (Homo sapiens, UniProt P00374); test: Multitargeted bead mixture competition, HeLa cell extract; format: binding
T2 sequence (P00374 1-187): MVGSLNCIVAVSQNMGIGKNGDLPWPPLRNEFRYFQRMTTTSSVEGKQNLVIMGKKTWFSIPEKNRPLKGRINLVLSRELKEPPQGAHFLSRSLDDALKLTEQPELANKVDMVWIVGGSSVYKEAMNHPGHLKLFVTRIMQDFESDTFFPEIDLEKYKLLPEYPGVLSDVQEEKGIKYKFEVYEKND

[7] = biological target: PTERIDINE REDUCTASE (TB927.8.2210) (Trypanosoma brucei brucei, UniProt O76290); test: Multitargeted bead mixture competition; format: binding, T. brucei; conditions: for competition for PTR1 (Figure 6): bead mixture, compound 100 μM; for fold change - vehicle control / fold change vs vehicle control: protein PTERIDINE REDUCTASE (CZT00009056.1); for fold change vs vehicle control: vehicle control = 1
[8] = biological target: T3, TS (Homo sapiens, UniProt P04818); test: Multitargeted bead mixture competition, HeLa cell extract; format: binding
T3 construct: endogenous in cells; host or cells: HeLa cell extract

[9] = protein LMJF.26.0320 C-1-TETRAH[…]
[10] = protein LMJF.26.0320 C-1-TETRAHYDROFOLATE SYNTHASE
[11] = bead mixture, HeLa cell extract
[12] = protein LMJF.06.0860, DIH[…]-T[…]
[13] = HeLa, protein DHFR (SIMILAR TO DIHYDROFOLATE REDUCTASE ISOFORM 2, PARTIAL)

Compound	fold change [1]	fold change - vehicle control [2]	fold change - vehicle control [3]	fold changes relative to vehicle control ([4]; protein EEF1D, HeLa)	fold changes relative to vehicle control ([6]; captured protein DHFR, HeLa)	fold change - vehicle control [7]	fold changes relative to vehicle control ([8]; captured protein TYMS, HeLa)	fold change relative to vehicle control [1, 12]	fold change [2]	fold change [3]	fold changes relative to vehicle control [6, 13]	fold change vs vehicle control [7]	fold changes relative to vehicle control ([8]; protein TYMS, HeLa)	also measured
Nc1nc2cccc(-c3ccccc3)c2n1Cc1ccc(Cl)c(Cl)c1 [compound 3]	1.11	0.99	0.96	1.1	1.13	0.15	0.99							percentage of competition from bead binding ([2]; multitargeted bead mixture, free ligand 100 μM, T. brucei lysate, TB427.06.4300 GAPDH): 3%; fold change vs vehicle control [5, 9]: 0.96; competition for PTR1 (Figure 6) ([7]; T. brucei lysate): competed for PTR1; percentage of competition from bead binding ([7]; multitargeted bead mixture, free ligand 100 μM, T. brucei lysate, TB927.8.2210 PTERIDINE REDUCTASE): 89%
CCCCCCOc1ccc(Cc2cnc(N)nc2N)cc1 [compound 1]	0.17	0.93	0.67	1.26	0.46	1	0.76							competition for DHFR-TS (Figure 8a) ([1]; bead mixture, L. major lysate): competed for DHFR-TS; fold change vs vehicle control [5, 10]: 0.93; binding to DHFR [6, 11]: found to bind DHFR
NCCCNc1ccc(C(=O)NC(CCC(=O)O)C(=O)O)cc1 (stereo not drawn) [compound 7]				0.93				1.02	1.07	0.68	0.98	1.03	1.04	fold change [5, 9]: 1.06
CCCCCCOc1cccc(Cc2cnc(N)nc2N)c1 [compound 2]	0.99	1.01	0.91	1.8	2.77	0.92	1.31							fold change vs vehicle control [5, 10]: 0.96
NCCOCCOCC(=O)Nc1nc2ncc(CNc3ccc(C(=O)NC(CCC(=O)O)C(=O)O)cc3)nc2c(=O)[nH]1 (stereo not drawn) [compound 6]				1.09				1.19	0.92	0.86	1.74	0.49	0.55	fold change [5, 10]: 0.98
Nc1nc2[nH]cc(CCc3ccc(C(=O)N[C@@H](CCC(=O)O)C(=O)O)cc3)c2c(=O)[nH]1 [PTX, pemetrexed]									0.91	0.9		0.16		fold change relative to vehicle control [1]: 1.08; binding to dynein associated protein (Tb09.211.4920) ([3]; bead mixture, T. brucei lysates): bound specifically; fold changes relative to vehicle control [4]: 1.01; fold change [5, 9]: 0.79; binding to DHFR [6]: did not appear to bind DHFR; fold changes relative to vehicle control [6]: 1.09; competition for PTR1 (Figure 6) ([7]; T. brucei lysate): competed for PTR1; fold changes relative to vehicle control [8]: 0.34; inhibition, TS [8]: > 56%
Nc1nc2c(c(=O)[nH]1)N(C=O)C(CNc1ccc(C(=O)N[C@@H](CCC(=O)O)C(=O)O)cc1)CN2 (stereo partly drawn) [LEU, leucovorin]				0.99				1.39	1.01	0.78	2.72	0.92	0.44	fold change [5, 10]: 0.98; inhibition, TS [8, 11]: > 56%
